Patent US7662851B2, “Use of specific cyklolignans” (Axelar AB, priority 2001, dated 2010)
Read-outs that look alike come from different tables or passages of the source.

Assays:
[1] = tested on: PC-3 prostatic carcinoma cell line; experiment: Cell viability (XTT), PC-3; format: cell-based; conditions: Homo sapiens, read-out: EC50 for cell viability
Procedure: (§1) Cell proliferation kit II (Roche Inc.) is based on colorimetric change of the yellow tetrazolium salt XTT in orange formazan dye by the respiratory chain of viable cells (Roehm, N W, et al., J Immunol Methods 142:257-265, 1991). Cells seeded at a concentration of 5000/well in 100 μl medium in a 96-well plate were treated with different drugs in the given concentration. After 24 or 48 h the cells were incubated, according to the manufacturer's protocol, with XTT labelling mixture. After 4 h the formazan dye is quantified using a scanning multiwell spectrophotometer with a 495-nm filter. The absorbance is directly correlated with the number of viable cells. The standard absorbance curve was drawn by means of untreated cells seeded at a concentration of from 1000 to 10 000 cells/well with an increasing rate of 1000 cells/well. All standards and experiments were performed in triplicates.
(§2) 12 different types of cell lines were seeded in 96-well plates (medium volume in a well was 100 μl), at a concentration of 10,000 cells/cm^2 in Minimal Essential Medium supplemented with fetal calf serum. When the cells had reached a concentration of 65,000 cells/cm^2, they were treated with different doses of podophyllotoxin and picropodophyllin for 48 h. Cell viability was then assayed (see above). […]

[2] = biological target: EGFR tyrosine kinase (Homo sapiens, UniProt P00533); experiment: In vitro tyrosine kinase assay: substrate phosphorylation by EGFR, cell-free; format: biochemical; conditions: FIG. 3
[3] = tested on: non-IGF-1R kinases; experiment: In vitro tyrosine kinase assay: non-IGF-1R kinases (IGF-1R-immunodepleted supernatant); format: biochemical; conditions: cell-free, FIG. 3
Procedure: IGF-1R-catalyzed substrate phosphorylation of polyTyrGlu (pTG) was performed essentially as previously described [Parrizas M., et al., ibid., and Blum G., et al., ibid.]. Immunoprecipitated IR from HepG2, IGF-1R from P6 cell extract and immunodepleted supernatant to assay non-IGF-1R tyrosine kinases. The phosphorylated polymer substrate was probed with a purified phosphotyrosine specific monoclonal antibody conjugated to horseradish peroxidase (HARP). Color was developed with HRP chromogenic substrate o-phenylene-diamine dihydrochloride (OPD). The color was quantitated by spectrophotometry (ELISA reader) and reflects the relative amount of tyrosine kinase. The precipitate was immunoblotted with anti-bodies to IGF-1R and IR to verify the presence of the receptor. Serial dilutions were used to assay the optimal conditions with respect to the amount of IGF-1R and IR. The signal was linear for 30 minutes and was a function of IGF-1R concentration up to 75 ng/well. […] After spectrophotometry the IC50 values of inhibitors were determined using the Regression function of Statistica program.
Therefore we isolated the receptor and determined the effects of picropodophyllin on IGF-1R catalyzed substrate tyrosine phosphorylation and IGF-1R autophosphorylation in-vitro.

[4] = Local toxicity, subcutaneous osmotic pumps in nude mice; format: in vivo; design: key to Local toxicity: effects on skin and subcutaneous tissue: 0: no tissue reaction; *: light tissue reaction with hyperemia and mild inflammation; **: moderate tissue reaction with strong inflammation; ***: strong tissue reaction with necrosis and bleedings; conditions: 7 days; for Local tissue reactions: subcutaneous osmotic pump loaded with 0.25 mg
Procedure: Control mice were treated with the solvent. 3-6 animals were treated in each group.
The first set of experiments was carried out to investigate possible local and systemic toxic effects of podophyllotoxin, deoxypodophyllotoxin and picropodophyllin on nude mice. In the first experiment osmotic pumps loaded with either drug-free solvent, podophyllotoxin (0.25 mg), deoxypodophyllotoxin (0.25 mg) or picropodophyllin (0.25 mg) were implanted subcutaneously in the flank region. The drugs are delivered subcutaneously with a constant flow of 0.6 μl/h over 7 days. The volume of the pumps was 100 μl. After 7 days the mice were killed and the skin and subcutaneous tissue adjacent to the outlet of the pumps were analyzed and scored for tissue reactions by an experienced pathologist. There were 3 mice in each group.

[5] = tested on: HL60/0 acute myeloid leukemia cells; experiment: Leukemia cell viability, HL60/0; format: cell-based, human; conditions: Homo sapiens, HL-60; HL60, 72 h; read-out: IC50 for cell viability
Procedure: The human chronic myeloid leukemia K562/S and K562/Vcr30 lines and the acute myeloid leukemia cell lines HL60/0 and HL60/Nov were obtained from ATCC. The K562/S and […] are wild type (non-resistant) cells, whereas K562/Vcr30 and HL60/Nov are cytostatic-resistant sublines. All leukemia cell lines were cultured in RPMI 1640 medium supplemented with 10% fetal bovine serum and with 2 mM L-glutamine, benzylpenicillin (100 U/ml) and streptomycin (100 μg/ml). The cells were grown in tissue culture flasks maintained at 95% air/5% CO2 atmosphere at 37° C. in a humidified incubator. For the experiments cells were cultured in 60-mm plastic dishes or 96-well plastic plates.
as §1
Cells of said cell lines were seeded in 96-well plates (25 000 cells/well, medium volume per well was 100 μl), in […] medium supplemented with fetal calf serum. After 24 h picropodophyllin and the derivatives alpha-apopicropodophyllin and beta-apopicropodo-phyllin were added at different concentrations and the cells were incubated for 72 h. Cell viability was then assayed (see above). […] The results are based on 3 different experiments.
The leukemia cell lines K562/S, […], HL60/0 and HL60/Nov were cultured in 96-well plates as described in Experiment 7. After 24 h, the cells were treated for 72 h with different concentrations of the anti-cancer agent vincristine, with and without co-incubation with 0.05 μM picropodophyllin. […] Cell viability was then assayed. IC50 values for each inhibitor and cell line are shown below (Table 8). The results are based on 3 different experiments.

[6] = nude, mouse, in vivo, ip, 28 mg/kg
[7] = tested on: SK-MEL-2 melanoma cell line; experiment: Cell viability (XTT, Cell proliferation kit II), SK-MEL-2; format: cell-based; conditions: Homo sapiens, SK-MEL-2, 48 h
Procedure: as §1, §2

[8] = tested on: β-tubulin; conditions: in vitro; read-out: IC50, binding to β-tubulin; cited from earlier work

Sequence of EGFR tyrosine kinase (P00533 25-1210): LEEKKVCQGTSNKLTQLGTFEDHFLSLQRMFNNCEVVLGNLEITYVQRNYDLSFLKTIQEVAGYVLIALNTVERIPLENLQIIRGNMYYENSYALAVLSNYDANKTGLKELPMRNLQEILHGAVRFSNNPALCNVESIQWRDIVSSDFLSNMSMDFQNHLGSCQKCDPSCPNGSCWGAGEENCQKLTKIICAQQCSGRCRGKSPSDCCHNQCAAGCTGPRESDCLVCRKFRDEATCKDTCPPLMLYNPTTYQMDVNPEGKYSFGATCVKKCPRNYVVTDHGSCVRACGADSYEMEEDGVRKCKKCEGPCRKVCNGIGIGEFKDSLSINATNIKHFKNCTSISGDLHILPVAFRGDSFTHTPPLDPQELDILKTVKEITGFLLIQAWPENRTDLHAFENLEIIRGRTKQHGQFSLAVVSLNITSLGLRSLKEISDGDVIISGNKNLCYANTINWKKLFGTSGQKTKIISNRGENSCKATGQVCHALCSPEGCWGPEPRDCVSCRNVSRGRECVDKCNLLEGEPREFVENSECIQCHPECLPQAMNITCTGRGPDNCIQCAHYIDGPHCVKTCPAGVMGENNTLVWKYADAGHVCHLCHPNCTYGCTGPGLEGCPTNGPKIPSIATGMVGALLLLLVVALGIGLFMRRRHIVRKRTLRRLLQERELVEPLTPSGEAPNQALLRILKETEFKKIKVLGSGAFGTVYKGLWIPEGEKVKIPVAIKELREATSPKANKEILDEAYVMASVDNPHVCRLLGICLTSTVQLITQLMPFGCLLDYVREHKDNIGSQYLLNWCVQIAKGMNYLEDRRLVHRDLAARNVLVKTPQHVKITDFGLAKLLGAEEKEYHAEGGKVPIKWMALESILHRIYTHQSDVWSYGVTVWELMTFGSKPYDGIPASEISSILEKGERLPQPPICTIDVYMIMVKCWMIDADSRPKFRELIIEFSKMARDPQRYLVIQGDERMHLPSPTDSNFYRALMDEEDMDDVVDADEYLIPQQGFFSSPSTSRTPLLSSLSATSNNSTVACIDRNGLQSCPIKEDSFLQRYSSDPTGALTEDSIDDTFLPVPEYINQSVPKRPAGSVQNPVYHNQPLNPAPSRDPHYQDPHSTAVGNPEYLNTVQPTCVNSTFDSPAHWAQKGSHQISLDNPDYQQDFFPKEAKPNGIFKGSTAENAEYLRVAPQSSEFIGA

Row | Structure (SMILES) | EC50 ([1]; PC-3, 48 h) [nM] | Interference with substrate phosphorylation of EGFR tyrosine kinase [2] | Interference with substrate phosphorylation of other non-IGF-1R kinases [3] | Local tissue reactions [4] | Local toxicity: effects on skin and subcutaneous tissue ([4]; subcutaneous osmotic pump, 7 mg/kg/d) | IC50 [5] [nM] | Average concentration in the blood plasma [6] | EC50 [7] [nM] | EC50 ([1]; 48 h) [nM] | IC50 [8] [nM]
1 | COc1cc([C@@H]2c3cc4c(cc3[C@H](O)[C@H]3COC(=O)[C@@H]23)OCO4)cc(OC)c1OC [Picropodophyllin, picropodophyllin] | 90 | failed to interfere | failed to interfere | no visible reactions | 0 | 170 | […] | – | – | –
2 | COc1cc([C@@H]2c3cc4c(cc3[C@H](O)[C@H]3COC(=O)[C@H]23)OCO4)cc(OC)c1OC [Podophyllotoxin, podophyllotoxin] | – | – | – | severe tissue reactions with necrosis, bleeding and inflammation | – | – | – | […] | 60 | […]
